From patent US7385026B1, “Modified ghrelin polypeptides” (priority 1999, dated 2008)
Where “and” joins values, the source holds several entries; their conditions need not be identical. Identical values can stand only once. Like-named read-outs stand apart in the source and are kept apart here. Square brackets hold non-standard residues; d marks the D form. Peptide text beside a SMILES is read from it. d2Nal = N[C@H](Cc1ccc2ccccc2c1)C(=O)O; Aib = CC(C)(N)C(=O)O

What was measured:
[1] = molecular target: T1, rat GHS-receptor (GHR-R) (Rattus norvegicus, UniProt O08725); assay: Ca-releasing activity (increase in intracellular calcium) in CHO-GHSR62 cells, FLIPR; format: cell-based
T1 construct: A full-length cDNA for rat GHR-R was obtained by RT-PCR; expressed in transfected cells
T1 sequence (O08725 whole entry): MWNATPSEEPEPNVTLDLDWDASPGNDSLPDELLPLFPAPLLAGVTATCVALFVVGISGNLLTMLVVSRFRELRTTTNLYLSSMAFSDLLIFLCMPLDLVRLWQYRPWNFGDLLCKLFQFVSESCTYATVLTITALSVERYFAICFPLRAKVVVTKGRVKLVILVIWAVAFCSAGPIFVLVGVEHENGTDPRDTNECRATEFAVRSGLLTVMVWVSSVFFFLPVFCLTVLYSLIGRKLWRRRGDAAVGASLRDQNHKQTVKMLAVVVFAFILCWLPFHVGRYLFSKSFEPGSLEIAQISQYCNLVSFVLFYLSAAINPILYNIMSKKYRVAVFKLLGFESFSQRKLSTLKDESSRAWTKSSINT
How it was run: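 CHO cells stably expressing full-length rat GHS-R (CHO-GHSR62) were cultured 12–15 h, loaded with 4 μM Fluo4 for 1 h and washed with Hank's BSS containing 20 mM Hepes and 2.5 mM probenecid. Ca-releasing activity of ghrelin peptides, fragments or derivatives was read by FLIPR as the fluorescence change after sample addition.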

[2] = tested on: amino-terminal antibody (anti-[C-Cys]-rat ghrelin [1-11] antigen); assay: Radioimmunoassay: inhibition of binding of labeled rat ghrelin to amino-terminal antibody; design: species or system rabbit
[3] = tested on: IGS-SD strain rats; assay: GH-releasing activity of long-chain ghrelin derivatives in rat (plasma GH 15 min after i.v.); format: in vivo; details: for GH level in plasma in 15 min. after administration, M ± S.D.: n=3; for GH level in plasma in 15 min. after administration, individual rats (Rat 1-3): rats under Nembutal; for GH-releasing activity (in words): i.v., plasma GH at 15 minutes
Experimental: Fifteen minutes after administration, plasma was collected, and the concentration of GH in plasma was measured by radioimmunoassay (Biotrak/Amersham). Separately, 0.2% bovine serum albumin (BSA)-physiological saline, 6 nmol/kg rGhrelin and hGhrelin, or 80 nmol/kg Ipamorelin (Compound 80) was administered into other rats as the control, respectively, and the concentrations of GH in plasma in 15 minutes after administration were compared (for each sample, n=3).

[4] = CHO-GHSR62 cells (CHO cells expressing rat GHS receptor), FLIPR, read-out: Ca-releasing activity EC50

SMILES | EC50 [1, 4] [nM] | cross-reactivity with the amino-terminal antibody [2] [%] | GH level in plasma in 15 min. after administration, M ± S.D. ([3]; dose 18 nmol/kg i.v.) [ng/mL] | GH-releasing activity (in words) [3] | also measured
CCCCCCCCCC(=O)OC[C@H](NC(=O)[C@H](CO)NC(=O)CN)C(=O)N[C@@H](Cc1ccccc1)C(=O)N[C@@H](CC(C)C)C(=O)N[C@@H](CO)C(=O)N1CCC[C@H]1C(=O)N[C@@H](CCC(=O)O)C(=O)N[C@@H](Cc1c[nH]cn1)C(=O)N[C@@H](CCC(N)=O)C(=O)N[C@@H](CCCCN)C(=O)N[C@@H](C)C(=O)N[C@@H](CCC(N)=O)C(=O)N[C@@H](CCC(N)=O)C(=O)N[C@@H](CCCNC(=N)N)C(=O)N[C@@H](CCCCN)C(=O)N[C@@H](CCC(=O)O)C(=O)N[C@@H](CO)C(=O)N[C@@H](CCCCN)C(=O)N[C@@H](CCCCN)C(=O)N1CCC[C@H]1C(=O)N1CCC[C@H]1C(=O)N[C@@H](C)C(=O)N[C@@H](CCCCN)C(=O)N[C@@H](CC(C)C)C(=O)N[C@@H](CCC(N)=O)C(=O)N1CCC[C@H]1C(=O)N[C@@H](CCCNC(=N)N)C(=O)O [Compound 12, [Ser^3(Decanoyl)]-rGhrelin] | 1.7 | 20 |  |  | EC50 ([1]; Table 3, Example 9: protease fragments or synthetic peptides, CHO-GHSR62 cells, read-out: Ca-releasing activity (EC50)): 2.6 nM
CC(C)C[C@H](NC(=O)[C@H](CCCCN)NC(=O)[C@H](C)NC(=O)[C@@H]1CCCN1C(=O)[C@@H]1CCCN1C(=O)[C@H](CCCCN)NC(=O)[C@H](CCCCN)NC(=O)[C@H](CO)NC(=O)[C@H](CCC(=O)O)NC(=O)[C@H](CCCCN)NC(=O)[C@H](CCCNC(=N)N)NC(=O)[C@H](CCC(N)=O)NC(=O)[C@H](CCC(N)=O)NC(=O)[C@@H](NC(=O)[C@H](CCCNC(=N)N)NC(=O)[C@H](CCC(N)=O)NC(=O)[C@H](Cc1c[nH]cn1)NC(=O)[C@H](CCC(=O)O)NC(=O)[C@@H]1CCCN1C(=O)[C@H](CO)NC(=O)[C@H](CC(C)C)NC(=O)[C@H](Cc1ccccc1)NC(=O)[C@H](Cc1ccc2ccccc2c1)NC(=O)[C@H](CO)NC(=O)CN)C(C)C)C(=O)N[C@@H](CCC(N)=O)C(=O)N1CCC[C@H]1C(=O)N[C@@H](CCCNC(=N)N)C(=O)O [Compound 65, [2-^LNal^3]-hGhrelin] | 8.2 |  |  |  | GH level in plasma in 15 min. after administration, M ± S.D. ([3]; dose 100 nmol/kg i.v.): 1524 ± 147 ng/mL; GH level in plasma in 15 min. after administration, individual rats (Rat 1-3) ([3]; dose 100 nmol/kg i.v.): 1637 ng/mL and 1576 ng/mL and 1357 ng/mL
CC(C)(N)C(=O)N[C@@H](Cc1c[nH]cn1)C(=O)N[C@H](Cc1ccc2ccccc2c1)C(=O)N[C@H](Cc1ccccc1)C(=O)N[C@@H](CCCCN)C(N)=O [Compound 80, [Aib^1, His^2, ^DNal^3, ^DPhe^4, Lys^5]-Ghrelin (1-5)-amide, reference compound] (H-[Aib]H[d2Nal][dF]K-NH2) | 2.5 |  |  |  | GH level in plasma in 15 min. after administration, M ± S.D. ([3]; dose 80 nmol/kg i.v.): 607 ± 503 ng/mL; GH level in plasma in 15 min. after administration, individual rats (Rat 1-3) ([3]; dose 80 nmol/kg i.v., listed as Ipamorelin): 377 ng/mL and 260 ng/mL and 1184 ng/mL

More lines, main results first:

EC50 [1, 4] [nM] | cross-reactivity with the amino-terminal antibody [2] [%] | SMILES | GH level in plasma in 15 min. after administration, M ± S.D. ([3]; dose 18 nmol/kg i.v.) [ng/mL] | GH-releasing activity (in words) [3] | also measured
16 | 0.3 | CCCCCC(=O)OC[C@H](NC(=O)[C@H](CO)NC(=O)CN)C(=O)N[C@@H](Cc1ccccc1)C(=O)N[C@@H](CC(C)C)C(=O)N[C@@H](CO)C(=O)N1CCC[C@H]1C(=O)N[C@@H](CCC(=O)O)C(=O)N[C@@H](Cc1c[nH]cn1)C(=O)N[C@@H](CCC(N)=O)C(=O)N[C@@H](CCCCN)C(=O)N[C@@H](C)C(=O)N[C@@H](CCC(N)=O)C(=O)N[C@@H](CCC(N)=O)C(=O)N[C@@H](CCCNC(=N)N)C(=O)N[C@@H](CCCCN)C(=O)N[C@@H](CCC(=O)O)C(=O)N[C@@H](CO)C(=O)N[C@@H](CCCCN)C(=O)N[C@@H](CCCCN)C(=O)N1CCC[C@H]1C(=O)N1CCC[C@H]1C(=O)N[C@@H](C)C(=O)N[C@@H](CCCCN)C(=O)N[C@@H](CC(C)C)C(=O)N[C@@H](CCC(N)=O)C(=O)N1CCC[C@H]1C(=O)N[C@@H](CCCNC(=N)N)C(=O)O [Compound 11, [Ser^3(Hexanoyl)]-rGhrelin] |  |  | 
1.4 |  | CC(C)C[C@H](NC(=O)[C@H](CCCCN)NC(=O)[C@H](C)NC(=O)[C@@H]1CCCN1C(=O)[C@@H]1CCCN1C(=O)[C@H](CCCCN)NC(=O)[C@H](CCCCN)NC(=O)[C@H](CO)NC(=O)[C@H](CCC(=O)O)NC(=O)[C@H](CCCCN)NC(=O)[C@H](CCCNC(=N)N)NC(=O)[C@H](CCC(N)=O)NC(=O)[C@H](CCC(N)=O)NC(=O)[C@@H](NC(=O)[C@H](CCCNC(=N)N)NC(=O)[C@H](CCC(N)=O)NC(=O)[C@H](Cc1c[nH]cn1)NC(=O)[C@H](CCC(=O)O)NC(=O)[C@@H]1CCCN1C(=O)[C@H](CO)NC(=O)[C@H](CC(C)C)NC(=O)[C@H](Cc1ccccc1)NC(=O)[C@H](COC(=O)CCc1ccccc1)NC(=O)[C@H](CO)NC(=O)CN)C(C)C)C(=O)N[C@@H](CCC(N)=O)C(=O)N1CCC[C@H]1C(=O)N[C@@H](CCCNC(=N)N)C(=O)O [Compound 15, [Ser^3(3-Phenylpropionyl)]-hGhrelin] | 1926 ± 299 | strong GH-releasing activity | GH level in plasma in 15 min. after administration, individual rats (Rat 1-3) ([3]; dose 18 nmol/kg i.v., listed as [Ser^3(Phenylpropionyl)]-hGhrelin): 2119 ng/mL and 2078 ng/mL and 1581 ng/mL
1.2 |  | CCCCCCCCOC[C@H](NC(=O)[C@H](CO)NC(=O)CN)C(=O)N[C@@H](Cc1ccccc1)C(=O)N[C@@H](CC(C)C)C(=O)N[C@@H](CO)C(=O)N1CCC[C@H]1C(=O)N[C@@H](CCC(=O)O)C(=O)N[C@@H](Cc1c[nH]cn1)C(=O)N[C@@H](CCC(N)=O)C(=O)N[C@@H](CCCNC(=N)N)C(=O)N[C@H](C(=O)N[C@@H](CCC(N)=O)C(=O)N[C@@H](CCC(N)=O)C(=O)N[C@@H](CCCNC(=N)N)C(=O)N[C@@H](CCCCN)C(=O)N[C@@H](CCC(=O)O)C(=O)N[C@@H](CO)C(=O)N[C@@H](CCCCN)C(=O)N[C@@H](CCCCN)C(=O)N1CCC[C@H]1C(=O)N1CCC[C@H]1C(=O)N[C@@H](C)C(=O)N[C@@H](CCCCN)C(=O)N[C@@H](CC(C)C)C(=O)N[C@@H](CCC(N)=O)C(=O)N1CCC[C@H]1C(=O)N[C@@H](CCCNC(=N)N)C(=O)O)C(C)C [Compound 17, [Ser^3(Octyl)]-hGhrelin] | 1657 ± 75 | strong GH-releasing activity | GH level in plasma in 15 min. after administration, individual rats (Rat 1-3) ([3]; dose 18 nmol/kg i.v.): 1626 ng/mL and 1602 ng/mL and 1743 ng/mL
